In ChEMBL document CHEMBL1153471, “3,5-Diphenylpent-2-enoic acids as allosteric activators of the protein kinase PDK1: structure-activity relationships and thermodynamic characterization of binding as paradigms for PIF-binding pocket-targeting compounds” (J Med Chem, 2009):
Numbering of substitutions follows the chain as printed. pKd: −log10 of the molar value. Activity calls are given as the source filed them. The calls are words filed in the database; no cut-off is given here.

Legend:
[1] = molecular target: T1, 3-phosphoinositide-dependent protein kinase 1 (Homo sapiens, UniProt O15530); assay: Binding affinity to PDK1 (50 to 359) by isothermal titration calorimetry; settings: for pKd: read-out: Kd
T1 sequence (O15530 whole entry): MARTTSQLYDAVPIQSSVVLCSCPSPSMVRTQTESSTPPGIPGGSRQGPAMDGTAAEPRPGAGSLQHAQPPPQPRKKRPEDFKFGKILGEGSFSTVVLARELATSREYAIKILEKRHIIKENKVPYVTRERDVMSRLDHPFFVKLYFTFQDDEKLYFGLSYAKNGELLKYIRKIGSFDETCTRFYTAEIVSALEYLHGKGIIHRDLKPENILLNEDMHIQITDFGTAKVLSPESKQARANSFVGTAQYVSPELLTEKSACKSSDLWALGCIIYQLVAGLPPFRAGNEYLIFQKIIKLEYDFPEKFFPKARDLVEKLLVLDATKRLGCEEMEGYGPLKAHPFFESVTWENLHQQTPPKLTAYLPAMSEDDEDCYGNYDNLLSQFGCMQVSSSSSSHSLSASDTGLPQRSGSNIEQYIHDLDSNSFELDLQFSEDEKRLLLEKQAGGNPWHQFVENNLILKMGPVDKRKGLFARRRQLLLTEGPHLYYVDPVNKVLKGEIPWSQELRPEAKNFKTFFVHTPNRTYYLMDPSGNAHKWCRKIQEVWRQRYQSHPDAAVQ

[2] = molecular target: T2, 3-phosphoinositide-dependent protein kinase 1 (Homo sapiens) (UniProt O15530)
T2 sequence (whole entry): T1 sequence (O15530 whole entry)

[3] = system: T3, 3-phosphoinositide-dependent protein kinase 1 (Homo sapiens), O15530 [V127T]; assay: Binding affinity to GST-PDK1 V127T mutant expressed in HEK293 cells at 2 uM; type: cell-based
T3 sequence (whole entry): T1 sequence (O15530 whole entry) with V127T

[4] = molecular target: T2, 3-phosphoinositide-dependent protein kinase 1 (Homo sapiens); assay: Binding affinity to wild type recombinant GST-PDK1 expressed in HEK293 cells at 2 uM; type: cell-based

Compound | pKd [1] | Ka [2] [M⁻¹] | Kd [1] | also measured
O=C(O)/C=C(/CCc1c[nH]c2ccccc12)c1ccccc1 | 5.00 |  |  | 
O=C(O)/C=C(/CCc1ccc(C(F)(F)F)cc1)c1ccccc1 | 4.98 | 96600 |  | 
O=C(O)/C=C(\CCc1ccc2ccccc2c1)c1ccccc1 |  |  | Not Active | 
O=C(O)/C=C(/CCc1ccc(Br)cc1)c1ccccc1 | 4.68 | 47800 |  | 
O=C(O)/C=C(\CCc1ccc(Br)cc1F)c1ccccc1 |  |  | Not Active | 
O=C(O)/C=C(/CCc1ccc(Cl)cc1Cl)c1ccccc1 | 5.23 |  |  | 
H-REPRILSEEEQEMFRDFDYIADEC-OH |  |  |  | Activity [3]: Active; Activity [4]: Active
O=C(O)/C=C(\CCC1C=Nc2ccccc21)c1ccccc1 (centres undefined) |  |  | Not Active | 
O=C(O)/C=C(/CCc1ccc(Cl)c(Cl)c1)c1ccccc1 | 4.86 | 71800 |  | 
O=C(O)/C=C(/CCc1ccc2ccccc2c1)c1ccccc1 | 4.86 |  |  | 
